Read-outs that look alike come from different tables or passages of the source.

Here are results for 13 compounds from patent US12539292B2, “BRM targeting compounds and associated methods of use” (Arvinas Operations, Inc., priority 2018, dated 2026).

The target of this test is T1, BRM (Homo sapiens, UniProt P51531).
T1 construct: In-Cell Western Screen of BRM Degradation in SW1573 Cells; endogenous in cells; host or cells: SW1573
Nature of the test: In-cell Western screen of BRM degradation in SW1573 cells (Dmax and DC50). The class given is cell-based. The essentials:
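After adhering overnight, cells received compound for 18-20 hours. They were then washed in cold DPBS, fixed with 4% PFA for 20 min and permeabilized for 30 min. Blocking and fluorescent secondary staining followed before imaging.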

Where [1] appears, read: BRM degradation, SW1573 cells, Table 2D, read-out: *DC50.
The mark [2] stands for this setting: BRM degradation, SW1573 cells, read-out: DC50.
The mark [3] stands for this setting: SW1573, % degraded, when tested at the top concentration of between 0.3 and 10 μM, read-out: BRM Dmax (%).
Where [4] appears, read: target protein degradation, read-out: BRM DC50.
Setting [5] is: BRM degradation, SW1573 cells, when tested at the top concentration of between 0.3 and 10 μM, read-out: Dmax (%) (% degraded).

T1 sequence (P51531 whole entry): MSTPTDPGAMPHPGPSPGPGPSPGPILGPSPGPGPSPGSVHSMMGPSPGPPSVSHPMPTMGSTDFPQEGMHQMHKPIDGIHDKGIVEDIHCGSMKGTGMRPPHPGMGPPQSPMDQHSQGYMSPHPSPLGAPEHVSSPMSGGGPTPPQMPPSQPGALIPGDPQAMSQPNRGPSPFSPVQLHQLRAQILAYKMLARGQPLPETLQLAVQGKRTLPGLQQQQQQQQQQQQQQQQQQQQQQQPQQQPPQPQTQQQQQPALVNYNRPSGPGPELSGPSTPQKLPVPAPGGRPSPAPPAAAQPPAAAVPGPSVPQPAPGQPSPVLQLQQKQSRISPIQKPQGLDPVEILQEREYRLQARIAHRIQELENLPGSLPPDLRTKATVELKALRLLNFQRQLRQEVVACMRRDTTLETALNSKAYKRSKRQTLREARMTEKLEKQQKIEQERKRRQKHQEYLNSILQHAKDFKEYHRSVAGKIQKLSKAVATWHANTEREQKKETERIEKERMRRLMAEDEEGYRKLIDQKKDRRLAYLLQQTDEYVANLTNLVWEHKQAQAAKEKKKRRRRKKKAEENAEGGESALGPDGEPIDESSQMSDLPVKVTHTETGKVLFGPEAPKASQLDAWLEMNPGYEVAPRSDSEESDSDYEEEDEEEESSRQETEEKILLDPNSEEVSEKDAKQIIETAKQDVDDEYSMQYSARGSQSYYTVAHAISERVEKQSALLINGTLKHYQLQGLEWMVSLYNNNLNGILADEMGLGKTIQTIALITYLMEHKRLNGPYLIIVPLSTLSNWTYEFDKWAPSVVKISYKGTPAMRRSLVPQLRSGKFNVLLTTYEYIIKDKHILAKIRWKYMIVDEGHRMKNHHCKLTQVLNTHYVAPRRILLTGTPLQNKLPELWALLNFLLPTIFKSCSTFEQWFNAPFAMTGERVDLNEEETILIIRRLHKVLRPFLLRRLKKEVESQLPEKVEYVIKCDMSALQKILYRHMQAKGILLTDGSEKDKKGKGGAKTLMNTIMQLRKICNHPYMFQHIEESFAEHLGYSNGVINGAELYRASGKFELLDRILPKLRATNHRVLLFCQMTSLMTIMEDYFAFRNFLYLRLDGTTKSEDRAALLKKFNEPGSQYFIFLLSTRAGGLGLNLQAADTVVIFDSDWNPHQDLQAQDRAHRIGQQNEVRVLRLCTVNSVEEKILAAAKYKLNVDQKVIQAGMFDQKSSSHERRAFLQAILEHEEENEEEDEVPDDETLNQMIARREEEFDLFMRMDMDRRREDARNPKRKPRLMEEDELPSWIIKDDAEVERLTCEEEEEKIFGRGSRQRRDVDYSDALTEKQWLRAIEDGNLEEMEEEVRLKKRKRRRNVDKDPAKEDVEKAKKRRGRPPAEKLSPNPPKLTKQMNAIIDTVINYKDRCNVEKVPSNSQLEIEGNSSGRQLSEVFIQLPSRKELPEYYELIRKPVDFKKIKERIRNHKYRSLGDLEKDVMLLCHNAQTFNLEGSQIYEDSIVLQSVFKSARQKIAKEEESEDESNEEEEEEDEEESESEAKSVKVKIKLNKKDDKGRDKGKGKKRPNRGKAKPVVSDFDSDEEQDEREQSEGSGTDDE

A word on the DC50: it is the concentration at which degradation of the target reaches its halfway point. `Cc1ncsc1-c1ccc([C@H](C)NC(=O)[C@@H]2C[C@@H](O)CN2C(=O)[C@H](c2cc(N3CC(COCCOc4cc(N5C6CCC5CN(c5cc(-c7ccccc7O)nnc5N)C6)ccn4)C3)no2)C(C)C)cc1` [compound 549, (2S,4R)-1-((2S)-2-(3-(3-((2-((4-(3-(3-amino-6-(2-hydroxyphenyl)pyridazin-4-yl)-3,8-diazabicyclo[3.2.1]octan-8-yl)pyridin-2-yl)oxy)ethoxy)methyl)azetidin-1-yl)isoxazol-5-yl)-3-methylbutanoyl)-4-hydroxy-N-((S)-1-(4-(4-methylthiazol-5-yl)phenyl)ethyl)pyrrolidine-2-carboxamide]: under setting [1], the DC50 was more than 0.03 µM.

Consider `Cc1ncsc1-c1ccc(CNC(=O)[C@@H]2C[C@@H](O)CN2C(=O)C(c2cc(OCC=Cc3ccc(OC4CC(Oc5cc(N6C7CC[C@@H]6CN(c6cc(-c8ccccc8O)nnc6N)C7)ccn5)C4)cn3)no2)C(C)C)cc1` (stereo partly drawn) [compound 56, (2S,4R)-1-(2-(3-((3-(5-((1r,3r)-3-((4-(3-(3-amino-6-(2-hydroxyphenyl)pyridazin-4-yl)-3,8-diazabicyclo[3.2.1]octan-8-yl)pyridin-2-yl)oxy)cyclobutoxy)pyridin-2-yl)allyl)oxy)isoxazol-5-yl)-3-methylbutanoyl)-4-hydroxy-N-(4-(4-methylthiazol-5-yl)benzyl)pyrrolidine-2-carboxamide], for which, under setting [2], the DC50 was less than 0.0025 µM. Besides, the “Dmax (%) (% degraded)” value (BRM degradation, SW1573 cells, when tested at the top concentration of between 0.3 and 10 μM) is on record as “A (A > 75)”.

As usually defined, the Dmax is the largest share of the target that was removed. As to `Cc1nccn1-c1ccc([C@H](C)NC(=O)[C@@H]2C[C@@H](O)CN2C(=O)[C@@H](c2cc(OCCN3CCC(O[C@H]4C[C@H](Oc5cc(N6C7CCC6CN(c6cc(-c8ccccc8O)nnc6N)C7)ccn5)C4)CC3)no2)C(C)C)cn1` [compound 398, (2S,4R)-1-((2R)-2-(3-(2-(4-((1r,3R)-3-((4-(3-(3-amino-6-(2-hydroxyphenyl)pyridazin-4-yl)-3,8-diazabicyclo[3.2.1]octan-8-yl)pyridin-2-yl)oxy)cyclobutoxy)piperidin-1-yl)ethoxy)isoxazol-5-yl)-3-methylbutanoyl)-4-hydroxy-N-((S)-1-(6-(2-methyl-1H-imidazol-1-yl)pyridin-3-yl)ethyl)pyrrolidine-2-carboxamide], the Dmax under setting [3] was more than 75%. Moreover, under setting [4], the DC50 is less than 0.0025 µM.

For `Cc1ncsc1-c1ccc([C@H](C)NC(=O)[C@@H]2C[C@@H](O)CN2C(=O)[C@@H](c2cc(CCCOCCOCCOCCn3cc(-c4cc(-c5ccccc5O)nnc4N)cn3)no2)C(C)C)cc1` [compound 110, (2S,4R)-1-((R)-2-(3-(3-(2-(2-(2-(4-(3-amino-6-(2-hydroxyphenyl)pyridazin-4-yl)-1H-pyrazol-1-yl)ethoxy)ethoxy)ethoxy)propyl)isoxazol-5-yl)-3-methylbutanoyl)-4-hydroxy-N-((S)-1-(4-(4-methylthiazol-5-yl)phenyl)ethyl)pyrrolidine-2-carboxamide], the DC50 under setting [2] was less than 0.0025 µM. Besides, the Dmax under setting [5] was more than 75%.

`Cc1ncsc1-c1ccc([C@H](C)NC(=O)[C@@H]2C[C@@H](O)CN2C(=O)[C@@H](c2onc(OCCN3CCN(CCOc4cc(N5C6CCC5CN(c5cc(-c7ccccc7O)nnc5N)C6)ccn4)CC3)c2F)C(C)C)cc1` [compound 114, (2S,4R)-1-((2R)-2-(3-(2-(4-(2-((4-(3-(3-amino-6-(2-hydroxyphenyl)pyridazin-4-yl)-3,8-diazabicyclo[3.2.1]octan-8-yl)pyridin-2-yl)oxy)ethyl)piperazin-1-yl)ethoxy)-4-fluoroisoxazol-5-yl)-3-methylbutanoyl)-4-hydroxy-N-((S)-1-(4-(4-methylthiazol-5-yl)phenyl)ethyl)pyrrolidine-2-carboxamide]: under setting [2], the DC50 was less than 0.0025 µM. For the same compound, the Dmax under setting [5] was more than 75%.

In the case of `Cc1cnc(C)n1-c1ccc([C@H](C)NC(=O)[C@@H]2C[C@@H](O)CN2C(=O)[C@@H](c2cc(OCCN3CCC(O[C@H]4C[C@H](Oc5cc(N6C7CCC6CN(c6cc(-c8ccccc8O)nnc6N)C7)ccn5)C4)CC3)no2)C(C)C)cc1` [compound 376, (2S,4R)-1-((2R)-2-(3-(2-(4-((1r,3R)-3-((4-(3-(3-amino-6-(2-hydroxyphenyl)pyridazin-4-yl)-3,8-diazabicyclo[3.2.1]octan-8-yl)pyridin-2-yl)oxy)cyclobutoxy)piperidin-1-yl)ethoxy)isoxazol-5-yl)-3-methylbutanoyl)-N-((S)-1-(4-(2,5-dimethyl-1H-imidazol-1-yl)phenyl)ethyl)-4-hydroxypyrrolidine-2-carboxamide], the maximal degradation (Dmax) under setting [3] was more than 75%. The DC50 under setting [4] was in the range of 0.01 to 0.03 µM.

With `Cc1ncsc1-c1ccc([C@H](C)NC(=O)[C@@H]2C[C@@H](O)CN2C(=O)[C@H](c2cc(N3CCC(CN4CCC(O[C@H]5C[C@H](Oc6cc(N7C8CCC7CN(c7cc(-c9ccccc9O)nnc7N)C8)ccn6)C5)CC4)CC3)no2)C(C)C)cc1F` [compound 651, (2S,4R)-1-((2S)-2-(3-(4-((4-((1r,3r)-3-((4-(3-(3-amino-6-(2-hydroxyphenyl)pyridazin-4-yl)-3,8-diazabicyclo[3.2.1]octan-8-yl)pyridin-2-yl)oxy)cyclobutoxy)piperidin-1-yl)methyl)piperidin-1-yl)isoxazol-5-yl)-3-methylbutanoyl)-N-((S)-1-(3-fluoro-4-(4-methylthiazol-5-yl)phenyl)ethyl)-4-hydroxypyrrolidine-2-carboxamide], under setting [2], the DC50 was more than 0.03 µM.

`Cc1ncsc1-c1ccc([C@H](C)NC(=O)[C@@H]2C[C@@H](O)CN2C(=O)[C@@H](NC(=O)Cc2ccc(N3CCN(CCOCCCc4cc(N5C6CCC5CN(c5cc(-c7ccccc7O)nnc5N)C6)ccn4)CC3)nc2)C(C)(C)C)cc1` [compound 50, (2S,4R)-1-[(2S)-2-[2-[6-(4-[2-[3-(4-[3-[3-amino-6-(2-hydroxyphenyl)pyridazin-4-yl]-3,8-diazabicyclo[3.2.1]octan-8-yl]pyridin-2-yl)propoxy]ethyl]piperazin-1-yl)pyridin-3-yl]acetamido]-3,3-dimethylbutanoyl]-4-hydroxy-N-[(1S)-1-[4-(4-methyl-1,3-thiazol-5-yl)phenyl]ethyl]pyrrolidine-2-carboxamide]: the half-maximal degradation concentration (DC50) under setting [2] is 0.01 to 0.03 µM. In addition, the greatest degradation seen (Dmax) under setting [5] was more than 75%.

`Cc1cc([C@@H](C(=O)N2C[C@H](O)C[C@H]2C(=O)N[C@@H](C)c2ccc(-c3scnc3C)cc2)[C@H](C)COCCn2cc(-c3cc(-c4ccccc4O)nnc3N)cn2)on1` [compound 534, (2S,4R)-1-((2S,3S)-4-(2-(4-(3-amino-6-(2-hydroxyphenyl)pyridazin-4-yl)-1 H-pyrazol-1-yl)ethoxy)-3-methyl-2-(3-methylisoxazol-5-yl)butanoyl)-4-hydroxy-N-((S)-1-(4-(4-methylthiazol-5-yl)phenyl)ethyl)pyrrolidine-2-carboxamide]: the DC50 (BRM degradation, read-out: BRM DC50) was more than 0.03 µM.

On to `Cc1ncsc1-c1ccc([C@H](C)NC(=O)[C@@H]2C[C@@H](O)CN2C(=O)[C@@H](c2cc(N3CCC(C#CCN4CCC(Oc5cc(N6C7CCC6CN(c6cc(-c8ccccc8O)nnc6N)C7)ccn5)CC4)CC3)no2)C(C)C)cc1` [compound 677, (2S,4R)-1-((2R)-2-(3-(4-(3-(4-((4-(3-(3-amino-6-(2-hydroxyphenyl)pyridazin-4-yl)-3,8-diazabicyclo[3.2.1]octan-8-yl)pyridin-2-yl)oxy)piperidin-1-yl)prop-1-yn-1-yl)piperidin-1-yl)isoxazol-5-yl)-3-methylbutanoyl)-4-hydroxy-N-((S)-1-(4-(4-methylthiazol-5-yl)phenyl)ethyl)pyrrolidine-2-carboxamide], for which the half-maximal degradation concentration (DC50) under setting [2] is less than 0.0025 µM. The Dmax (BRM degradation, SW1573 cells, read-out: Dmax (% degraded)) is more than 75%.

Take `Cc1nccn1-c1ccc([C@@H](C)NC(=O)[C@H]2C[C@H](O)CN2C(=O)[C@@H](c2cc(N3CCN(CC4CCN(C[C@H]5C[C@H](Oc6cc(N7C8CCC7CN(c7cc(-c9ccccc9O)nnc7N)C8)ccn6)C5)CC4)CC3)no2)C(C)C)cc1` (racemic) [compound 447, rac-(2R,4S)-1-((2R)-2-(3-(4-((1-(((1r,3r)-3-((4-(3-(3-amino-6-(2-hydroxyphenyl)pyridazin-4-yl)-3,8-diazabicyclo[3.2.1]octan-8-yl)pyridin-2-yl)oxy)cyclobutyl)methyl)piperidin-4-yl)methyl)piperazin-1-yl)isoxazol-5-yl)-3-methylbutanoyl)-4-hydroxy-N-((R)-1-(4-(2-methyl-1H-imidazol-1-yl)phenyl)ethyl)pyrrolidine-2-carboxamide]: for the setting “degradation of BRM, read-out: BRM DC50”, the DC50 is more than 0.03 µM.

`Cc1ncsc1-c1ccc([C@H](C)NC(=O)C2C[C@@H](O)CN2C(=O)[C@@H](c2onc(OCCN3CCC(O[C@H]4C[C@H](Oc5cc(N6C7CCC6CN(c6cc(-c8ccccc8O)nnc6N)C7)ccn5)C4)CC3)c2Cl)C(C)C)cc1` (stereo partly drawn) [compound 362, (2S,4R)-1-((2R)-2-(3-(2-(4-((1r,3R)-3-((4-(3-(3-amino-6-(2-hydroxyphenyl)pyridazin-4-yl)-3,8-diazabicyclo[3.2.1]octan-8-yl)pyridin-2-yl)oxy)cyclobutoxy)piperidin-1-yl)ethoxy)-4-chloroisoxazol-5-yl)-3-methylbutanoyl)-4-hydroxy-N-((S)-1-(4-(4-methylthiazol-5-yl)phenyl)ethyl)pyrrolidine-2-carboxamide]: under setting [3], the greatest degradation seen (Dmax) was more than 75%. For the same compound, the DC50 under setting [4] was less than 0.0025 µM.

Regarding `Cc1ncsc1-c1ccc([C@H](C)NC(=O)[C@@H]2C[C@@H](O)CN2C(=O)[C@@H](c2cc(N3CCC(OC4CCN(CC5CC(CN6CCC([C@H](C)n7cc(-c8cc(-c9ccccc9O)nnc8N)cn7)CC6)C5)CC4)CC3)no2)C(C)C)cc1` (single isomer, unassigned) [compound 594], the Dmax (BRM degradation, SW1573 cells, Table 2D, read-out: **Dmax (%) (% degraded)) is more than 75%. The DC50 under setting [1] was less than 0.0025 µM.
